Data from ChEMBL document CHEMBL4507319 (2021).

Experiments:
[1] = target: 5'-AMP-activated protein kinase catalytic subunit alpha-2 (Homo sapiens, UniProt P54646)
[2] = target: Serine/threonine-protein kinase PAK 6 (Homo sapiens) (UniProt Q9NQU5); assay: PAK6(h) Eurofins kinase panel; details: Compound concentration 1.0 uM
[3] = target: Serine/threonine-protein kinase Chk2 (Homo sapiens) (UniProt O96017); assay: CHK2(h) Eurofins kinase panel; details: Compound concentration 1.0 uM
[4] = target: Fibroblast growth factor receptor 1 (Homo sapiens) (UniProt P11362); assay: FGFR1(h) Eurofins kinase panel; details: Compound concentration 1.0 uM
Fibroblast growth factor receptor 1 (Homo sapiens), sequence (P11362 22-822 limits assumed): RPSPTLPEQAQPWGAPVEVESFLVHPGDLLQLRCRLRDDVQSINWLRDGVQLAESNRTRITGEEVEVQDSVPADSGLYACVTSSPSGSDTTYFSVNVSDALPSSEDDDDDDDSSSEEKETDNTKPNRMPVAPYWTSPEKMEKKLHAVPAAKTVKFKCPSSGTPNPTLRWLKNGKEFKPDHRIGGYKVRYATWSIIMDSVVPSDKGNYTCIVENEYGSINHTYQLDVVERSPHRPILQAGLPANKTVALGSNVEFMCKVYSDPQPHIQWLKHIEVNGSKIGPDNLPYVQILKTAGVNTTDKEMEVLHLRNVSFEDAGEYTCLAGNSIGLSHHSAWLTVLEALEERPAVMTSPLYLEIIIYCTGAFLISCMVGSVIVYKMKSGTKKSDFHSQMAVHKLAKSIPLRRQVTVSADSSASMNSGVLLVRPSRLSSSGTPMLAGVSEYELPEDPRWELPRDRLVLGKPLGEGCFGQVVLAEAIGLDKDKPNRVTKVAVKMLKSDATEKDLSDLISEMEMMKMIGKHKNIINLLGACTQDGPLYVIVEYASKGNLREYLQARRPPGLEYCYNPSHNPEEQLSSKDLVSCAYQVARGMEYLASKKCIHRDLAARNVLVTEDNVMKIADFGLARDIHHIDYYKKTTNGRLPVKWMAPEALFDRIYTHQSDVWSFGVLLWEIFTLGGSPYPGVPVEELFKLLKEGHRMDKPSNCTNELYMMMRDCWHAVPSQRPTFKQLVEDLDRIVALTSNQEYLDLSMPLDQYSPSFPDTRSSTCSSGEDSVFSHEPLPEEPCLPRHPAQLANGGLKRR

[5] = target: mTOR/FKBP12A/FKBP12B (Homo sapiens) (UniProt P62942+P68106+P42345); assay: mTOR/FKBP12(h) Eurofins kinase panel; assay type: protein-complex assay; details: Compound concentration 1.0 uM
mTOR/FKBP12A/FKBP12B (Homo sapiens), sequence (P62942 2-108 limits assumed, other chains not shown): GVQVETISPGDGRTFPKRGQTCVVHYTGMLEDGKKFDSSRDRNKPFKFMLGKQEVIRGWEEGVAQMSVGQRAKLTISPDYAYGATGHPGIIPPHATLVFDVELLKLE
mTOR/FKBP12A/FKBP12B (Homo sapiens), sequence (P68106 whole entry partner, other chains not shown): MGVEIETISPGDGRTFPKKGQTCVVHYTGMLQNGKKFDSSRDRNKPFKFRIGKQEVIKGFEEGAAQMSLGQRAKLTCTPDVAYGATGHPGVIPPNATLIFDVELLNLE

[6] = target: T1, Serine/threonine-protein kinase Sgk3 (Homo sapiens) (UniProt Q96BR1); assay: SGK3(h) Eurofins kinase panel; details: Compound concentration 1.0 uM
T1 sequence (whole entry): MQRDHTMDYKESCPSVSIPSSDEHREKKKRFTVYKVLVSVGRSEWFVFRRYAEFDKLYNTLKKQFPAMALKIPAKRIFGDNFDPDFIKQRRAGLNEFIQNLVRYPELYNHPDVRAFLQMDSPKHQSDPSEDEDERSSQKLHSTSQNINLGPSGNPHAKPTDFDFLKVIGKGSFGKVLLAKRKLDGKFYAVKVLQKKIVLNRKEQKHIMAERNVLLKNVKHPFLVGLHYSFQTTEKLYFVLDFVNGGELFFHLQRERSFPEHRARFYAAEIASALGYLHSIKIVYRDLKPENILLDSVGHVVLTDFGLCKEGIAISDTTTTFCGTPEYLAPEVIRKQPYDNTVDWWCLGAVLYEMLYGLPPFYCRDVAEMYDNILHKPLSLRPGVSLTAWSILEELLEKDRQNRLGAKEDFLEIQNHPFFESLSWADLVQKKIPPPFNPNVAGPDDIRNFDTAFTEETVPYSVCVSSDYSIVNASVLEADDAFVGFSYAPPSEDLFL

NCI-H292 = assay: NCI- H292 cell line Proliferation assay; assay type: functional, Homo sapiens; details: time 3 day
[7] = target: T2, MAP/microtubule affinity-regulating kinase 4 (Homo sapiens) (UniProt Q96L34); assay: MARK4(h) Eurofins kinase panel; details: Compound concentration 1.0 uM
T2 sequence (whole entry): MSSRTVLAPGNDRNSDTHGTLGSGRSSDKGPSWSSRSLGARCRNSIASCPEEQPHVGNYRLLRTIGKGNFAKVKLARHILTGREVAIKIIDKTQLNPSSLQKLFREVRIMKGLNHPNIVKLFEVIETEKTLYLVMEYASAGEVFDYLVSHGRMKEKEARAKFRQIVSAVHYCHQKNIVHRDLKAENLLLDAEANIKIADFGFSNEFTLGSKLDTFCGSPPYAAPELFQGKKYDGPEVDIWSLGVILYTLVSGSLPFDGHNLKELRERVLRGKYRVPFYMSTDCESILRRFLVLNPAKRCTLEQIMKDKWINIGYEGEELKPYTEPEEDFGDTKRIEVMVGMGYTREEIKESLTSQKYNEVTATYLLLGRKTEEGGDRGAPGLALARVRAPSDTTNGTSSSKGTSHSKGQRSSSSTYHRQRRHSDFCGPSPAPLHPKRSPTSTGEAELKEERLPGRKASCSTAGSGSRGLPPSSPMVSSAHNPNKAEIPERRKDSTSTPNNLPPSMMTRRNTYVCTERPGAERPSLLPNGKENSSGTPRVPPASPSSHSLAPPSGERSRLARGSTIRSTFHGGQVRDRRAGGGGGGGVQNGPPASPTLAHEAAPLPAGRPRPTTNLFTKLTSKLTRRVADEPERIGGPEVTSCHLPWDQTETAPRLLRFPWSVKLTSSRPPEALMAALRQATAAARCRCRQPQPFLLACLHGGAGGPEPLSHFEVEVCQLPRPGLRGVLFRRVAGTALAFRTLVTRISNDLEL

[8] = target: PI3-kinase p110-alpha/p85-alpha (Homo sapiens) (UniProt P27986+P42336); assay: PI3 Kinase(p110a/p85a)(h) Eurofins kinase panel; assay type: protein-complex assay; details: Compound concentration 1.0 uM
[9] = target: T3, Rhodopsin kinase GRK7 (Homo sapiens) (UniProt Q8WTQ7); assay: GRK7(h) Eurofins kinase panel; details: Compound concentration 1.0 uM
T3 sequence (whole entry): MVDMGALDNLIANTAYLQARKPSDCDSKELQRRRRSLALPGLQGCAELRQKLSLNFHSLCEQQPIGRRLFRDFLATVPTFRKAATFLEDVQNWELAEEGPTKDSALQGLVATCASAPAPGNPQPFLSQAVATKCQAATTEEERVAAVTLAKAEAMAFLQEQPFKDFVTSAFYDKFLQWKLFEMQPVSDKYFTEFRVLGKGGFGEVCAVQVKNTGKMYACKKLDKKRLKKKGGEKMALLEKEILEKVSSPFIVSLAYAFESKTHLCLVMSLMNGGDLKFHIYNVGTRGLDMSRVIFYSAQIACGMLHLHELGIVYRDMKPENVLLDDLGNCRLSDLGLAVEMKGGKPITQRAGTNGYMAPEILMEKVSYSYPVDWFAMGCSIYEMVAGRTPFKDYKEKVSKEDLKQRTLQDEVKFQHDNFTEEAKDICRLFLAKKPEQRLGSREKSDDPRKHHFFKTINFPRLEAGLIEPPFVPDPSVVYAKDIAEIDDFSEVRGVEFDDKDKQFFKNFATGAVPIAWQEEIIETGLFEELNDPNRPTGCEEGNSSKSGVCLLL

[10] = target: Misshapen-like kinase 1 (Homo sapiens) (UniProt Q8N4C8); assay: MINK(h) Eurofins kinase panel; details: Compound concentration 1.0 uM
Misshapen-like kinase 1 (Homo sapiens), sequence (Q8N4C8 whole entry, looked up): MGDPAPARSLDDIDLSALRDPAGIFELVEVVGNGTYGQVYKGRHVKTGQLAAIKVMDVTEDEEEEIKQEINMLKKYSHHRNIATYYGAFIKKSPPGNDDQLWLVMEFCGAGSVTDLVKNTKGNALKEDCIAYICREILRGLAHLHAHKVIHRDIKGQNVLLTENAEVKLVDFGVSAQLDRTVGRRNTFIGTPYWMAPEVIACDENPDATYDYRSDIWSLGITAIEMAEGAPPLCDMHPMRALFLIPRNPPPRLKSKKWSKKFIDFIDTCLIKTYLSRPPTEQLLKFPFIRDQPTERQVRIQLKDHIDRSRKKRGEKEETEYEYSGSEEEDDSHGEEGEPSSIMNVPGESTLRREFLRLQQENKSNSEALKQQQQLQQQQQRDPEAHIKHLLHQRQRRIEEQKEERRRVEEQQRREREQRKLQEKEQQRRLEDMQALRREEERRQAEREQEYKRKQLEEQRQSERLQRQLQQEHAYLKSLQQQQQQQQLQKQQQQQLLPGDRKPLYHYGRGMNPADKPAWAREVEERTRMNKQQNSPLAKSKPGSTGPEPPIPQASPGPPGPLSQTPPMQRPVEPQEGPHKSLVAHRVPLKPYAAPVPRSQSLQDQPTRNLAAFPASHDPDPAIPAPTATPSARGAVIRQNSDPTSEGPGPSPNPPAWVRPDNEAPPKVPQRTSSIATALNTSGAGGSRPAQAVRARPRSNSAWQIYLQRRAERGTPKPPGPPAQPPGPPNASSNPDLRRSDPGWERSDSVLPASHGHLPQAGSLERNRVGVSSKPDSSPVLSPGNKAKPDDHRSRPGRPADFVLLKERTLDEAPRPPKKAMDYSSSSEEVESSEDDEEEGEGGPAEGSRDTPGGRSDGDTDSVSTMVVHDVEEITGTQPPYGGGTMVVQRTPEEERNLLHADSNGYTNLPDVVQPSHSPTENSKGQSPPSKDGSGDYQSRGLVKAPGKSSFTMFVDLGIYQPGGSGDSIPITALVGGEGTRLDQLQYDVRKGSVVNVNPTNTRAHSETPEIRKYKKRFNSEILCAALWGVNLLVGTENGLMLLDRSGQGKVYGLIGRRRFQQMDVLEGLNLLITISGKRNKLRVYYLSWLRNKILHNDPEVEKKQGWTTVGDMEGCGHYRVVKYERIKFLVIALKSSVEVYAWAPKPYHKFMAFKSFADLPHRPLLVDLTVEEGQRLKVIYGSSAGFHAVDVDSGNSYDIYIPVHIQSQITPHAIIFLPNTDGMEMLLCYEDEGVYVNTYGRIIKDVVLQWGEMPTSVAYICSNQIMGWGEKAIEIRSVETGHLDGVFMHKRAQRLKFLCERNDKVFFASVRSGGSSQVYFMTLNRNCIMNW

[11] = target: Homeodomain-interacting protein kinase 3 (Homo sapiens) (UniProt Q9H422); assay: HIPK3(h) Eurofins kinase panel; details: Compound concentration 1.0 uM
Homeodomain-interacting protein kinase 3 (Homo sapiens), sequence (Q9H422 whole entry, looked up): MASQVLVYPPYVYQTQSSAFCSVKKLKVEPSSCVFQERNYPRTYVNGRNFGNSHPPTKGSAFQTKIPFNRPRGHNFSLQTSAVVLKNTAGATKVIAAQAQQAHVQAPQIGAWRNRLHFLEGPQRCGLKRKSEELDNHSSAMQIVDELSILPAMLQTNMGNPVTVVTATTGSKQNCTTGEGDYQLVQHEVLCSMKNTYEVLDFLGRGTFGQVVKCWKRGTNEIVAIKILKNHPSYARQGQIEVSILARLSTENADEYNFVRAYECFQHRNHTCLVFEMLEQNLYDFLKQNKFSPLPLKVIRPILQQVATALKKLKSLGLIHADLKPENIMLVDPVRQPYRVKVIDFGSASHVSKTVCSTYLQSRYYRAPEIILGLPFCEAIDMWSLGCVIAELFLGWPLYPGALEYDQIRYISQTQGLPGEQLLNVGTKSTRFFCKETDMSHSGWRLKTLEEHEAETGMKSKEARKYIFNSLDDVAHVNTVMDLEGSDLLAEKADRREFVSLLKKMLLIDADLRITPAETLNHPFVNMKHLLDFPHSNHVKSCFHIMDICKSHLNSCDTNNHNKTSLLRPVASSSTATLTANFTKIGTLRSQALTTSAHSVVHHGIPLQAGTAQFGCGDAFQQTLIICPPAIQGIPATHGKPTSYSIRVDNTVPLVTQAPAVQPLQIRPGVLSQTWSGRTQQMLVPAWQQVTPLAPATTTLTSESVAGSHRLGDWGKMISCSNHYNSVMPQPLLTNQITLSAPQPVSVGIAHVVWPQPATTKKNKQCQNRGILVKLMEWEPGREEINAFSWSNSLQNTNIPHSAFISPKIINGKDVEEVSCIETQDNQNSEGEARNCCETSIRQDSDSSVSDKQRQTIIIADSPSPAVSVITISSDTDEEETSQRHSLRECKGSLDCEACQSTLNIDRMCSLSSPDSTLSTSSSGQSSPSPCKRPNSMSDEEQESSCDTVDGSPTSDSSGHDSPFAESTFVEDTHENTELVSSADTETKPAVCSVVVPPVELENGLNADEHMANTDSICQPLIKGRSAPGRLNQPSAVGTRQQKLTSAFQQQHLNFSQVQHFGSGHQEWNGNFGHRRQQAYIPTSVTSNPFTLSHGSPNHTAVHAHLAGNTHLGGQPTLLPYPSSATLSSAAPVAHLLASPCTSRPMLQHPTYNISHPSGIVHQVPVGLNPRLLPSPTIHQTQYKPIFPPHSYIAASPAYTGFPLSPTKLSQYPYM

HeLa = assay: HeLa cell line Proliferation assay; assay type: functional, Homo sapiens; details: time 3 day

Serine/threonine-protein kinase PAK 6 (Homo sapiens), sequence (Q9NQU5 whole entry, looked up): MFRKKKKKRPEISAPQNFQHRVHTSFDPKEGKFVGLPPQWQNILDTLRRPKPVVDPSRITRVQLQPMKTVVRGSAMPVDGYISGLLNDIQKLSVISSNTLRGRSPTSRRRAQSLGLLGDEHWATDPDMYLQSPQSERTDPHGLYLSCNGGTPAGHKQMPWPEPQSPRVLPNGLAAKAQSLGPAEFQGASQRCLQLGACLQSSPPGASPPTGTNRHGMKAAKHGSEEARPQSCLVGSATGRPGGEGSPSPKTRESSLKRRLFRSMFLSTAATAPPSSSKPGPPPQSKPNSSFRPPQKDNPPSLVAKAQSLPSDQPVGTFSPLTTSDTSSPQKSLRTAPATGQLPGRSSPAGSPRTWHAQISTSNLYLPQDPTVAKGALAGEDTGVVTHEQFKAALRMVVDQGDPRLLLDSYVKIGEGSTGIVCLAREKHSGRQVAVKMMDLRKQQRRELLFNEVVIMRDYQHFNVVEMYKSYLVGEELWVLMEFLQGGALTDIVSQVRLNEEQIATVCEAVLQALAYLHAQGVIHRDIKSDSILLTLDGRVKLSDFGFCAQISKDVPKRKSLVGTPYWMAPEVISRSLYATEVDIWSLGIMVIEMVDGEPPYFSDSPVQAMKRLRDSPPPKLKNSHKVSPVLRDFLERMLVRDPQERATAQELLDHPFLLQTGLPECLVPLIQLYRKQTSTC
5'-AMP-activated protein kinase catalytic subunit alpha-2, sequence (P54646 whole entry): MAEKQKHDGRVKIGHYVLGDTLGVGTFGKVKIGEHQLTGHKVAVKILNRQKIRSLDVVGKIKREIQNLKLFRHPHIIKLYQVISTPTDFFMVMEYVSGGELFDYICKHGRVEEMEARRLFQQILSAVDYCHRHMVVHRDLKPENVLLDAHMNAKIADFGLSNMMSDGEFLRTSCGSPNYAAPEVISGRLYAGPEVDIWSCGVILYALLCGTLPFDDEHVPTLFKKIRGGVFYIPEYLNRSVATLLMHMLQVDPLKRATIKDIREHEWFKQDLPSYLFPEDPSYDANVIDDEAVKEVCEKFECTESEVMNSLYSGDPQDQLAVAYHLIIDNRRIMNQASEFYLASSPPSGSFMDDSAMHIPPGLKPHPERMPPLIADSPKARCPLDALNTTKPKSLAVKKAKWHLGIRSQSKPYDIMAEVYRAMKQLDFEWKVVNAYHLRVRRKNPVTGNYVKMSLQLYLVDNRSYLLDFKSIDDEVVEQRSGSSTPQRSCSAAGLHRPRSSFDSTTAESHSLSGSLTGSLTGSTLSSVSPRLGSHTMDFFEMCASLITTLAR

`CCc1ccccc1C(=O)Nc1n[nH]c2c(C)c(F)c(C3C(C#N)=C(C)N(C)C(C)=C3C#N)cc12` [BAY-3827] gave an IC50 [1] of 0.007 µM, a % residual kinase activity [2] of 86% and a % residual kinase activity [3] of 100%. For the same compound, the % residual kinase activity [4] was 61%, the % residual kinase activity [5] was 98% and the % residual kinase activity [6] was 95%. For the same compound, the “Cell Proliferation IC50” value (NCI-H292) was 17.1 µM, the % residual kinase activity [7] was 65% and the % residual kinase activity [8] was 99%. For the same compound, the % residual kinase activity [9] was 78%, the % residual kinase activity [10] was 99% and the % residual kinase activity [11] was 100%. The “Cell Proliferation IC50” value (HeLa) was 25.7 µM.
